Experiments:
[1] = biological target: T1, FGFR3 (Homo sapiens, UniProt P22607); test: Kinase binding assay (kinase-tagged T7 phage, qPCR), Kd; conditions: read-out: FGFR3 (Kd nM)
T1 construct: made in house; host or cells: E. coli derived from BL21, infected with T7 phage

[2] = biological target: T2, FGFR4 (Homo sapiens, UniProt P22455); test: as above; conditions: read-out: FGFR4 (Kd nM)
T2 construct: made in house; host or cells: E. coli derived from BL21, infected with T7 phage

[3] = biological target: T3, FGFR2 (Homo sapiens, UniProt P21802); test: as above; conditions: read-out: FGFR2 (Kd nM)
T3 construct: made in house; host or cells: E. coli derived from BL21, infected with T7 phage

[4] = biological target: T4, FGFR1 (Homo sapiens, UniProt P11362); test: as above; conditions: read-out: FGFR1 (Kd nM)
T4 construct: made in house; host or cells: E. coli derived from BL21, infected with T7 phage

[5] = biological target: T5, BCR-FGFR4 Ba/F3 (Homo sapiens, UniProt P22455); test: Ba/F3 cell viability assay (CellTiter-Glo 2.0); assay type: cell-based; conditions: Ba/F3 BCR-FGFR4 cells, 48 hours
T5 construct: host or cells: Ba/F3; the other entry of the earlier key: BCR (P11274, Breakpoint cluster region protein)
Description: (§1) Experimental Purpose: Recombinant kinase fusions are transduced into parental Ba/F3, which becomes dependent upon this constitutive kinase activity for IL3-independent survival. Inhibition of kinase activity leads to cell death, which is monitored using CellTiter-Glo® 2.0 (Promega) which measures intracellular ATP concentration that in turn serves as a marker for viability. BCR-FGFR4 Ba/F3, BCR-FGFR1 Ba/F3 and FGFR3-BAIAP2L1 Ba/F3 were obtained from Advanced Cellular Dynamics (Seattle, WA)
(§2) Cell Viability Assay Procedure: Cell Titer-Glo® 2.0 Luminescent cell viability assay reagent was purchased from Promega (Madison, WI). BCR-FGFR4 Ba/F3, BCR-FGFR1 Ba/F3 and FGFR3-BAIAP2L1 Ba/F3 cells were cultured in RPMI1640 media supplemented with 10% fetal bovine serum. Cultures were maintained at 37° C. in a humidified atmosphere of 5% CO2 and 95% air.
(§3) Cells were plated in 96-well clear bottom/white plates (Corning #3903) at 10,000 cells/well in 100 μl of media, incubated overnight. The next day, test compound DMSO stock solutions were made at 10 mM and 2 μM final concentration. Compounds were then added to cells in a 9-dose, 10-fold dilution series starting at 30 μM with an HP 300e Digital Dispenser (each dose was applied in triplicate). DMSO was backfilled to each well up to 301 nL total volume of test compound+DMSO, and a total of 301 nL DMSO was added to a control/no test compound well in triplicate. The cells in cell culture plates were incubated with the compounds at 37° C. and 5% CO2 for 48 hours. Then 50 μl of Cell Titer Glo 2.0 reagent was added to each well of the cell culture plates. The contents were covered from light and mixed on an orbital shaker at room temperature for 10 min. Luminescence was recorded by a Synergy H1 Microplate Reader (Biotek, Winooski, VT). Cells were assessed as a percentage of DMSO only treated control cells. Curves were plotted and IC50 values were calculated using the GraphPad Prism 8 program based on a sigmoidal dose-response equation (4 parameter).

[6] = biological target: T6, FGFR3-BAIAP2L1 Ba/F3 (Homo sapiens, UniProt P22607); test: Ba/F3 cell viability assay (CellTiter-Glo 2.0); assay type: cell-based; conditions: Ba/F3 FGFR3-BAIAP2L1 cells, 48 hours
T6 construct: host or cells: Ba/F3; the other entry of the earlier key: BAIAP2L1 (Q9UHR4, BAR/IMD domain-containing adapter protein 2-like 1)
Description: as §1, §2, §3

[7] = biological target: T7, BCR-FGFR1 Ba/F3 (Homo sapiens, UniProt P11362); test: Ba/F3 cell viability assay (CellTiter-Glo 2.0); assay type: cell-based; conditions: Ba/F3 BCR-FGFR1 cells, 48 hours
T7 construct: host or cells: Ba/F3; the other entry of the earlier key: BCR (P11274, Breakpoint cluster region protein)
Description: as §1, §2, §3

T7 sequence (P11362 478-767 limits assumed): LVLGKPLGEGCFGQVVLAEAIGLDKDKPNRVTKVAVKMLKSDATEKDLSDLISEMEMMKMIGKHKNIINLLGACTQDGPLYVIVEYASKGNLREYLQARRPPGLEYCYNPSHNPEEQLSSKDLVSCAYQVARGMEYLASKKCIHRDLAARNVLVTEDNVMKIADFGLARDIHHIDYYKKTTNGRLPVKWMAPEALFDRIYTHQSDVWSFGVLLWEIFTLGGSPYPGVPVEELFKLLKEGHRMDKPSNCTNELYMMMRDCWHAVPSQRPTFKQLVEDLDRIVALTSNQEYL
T3 sequence (P21802 22-821): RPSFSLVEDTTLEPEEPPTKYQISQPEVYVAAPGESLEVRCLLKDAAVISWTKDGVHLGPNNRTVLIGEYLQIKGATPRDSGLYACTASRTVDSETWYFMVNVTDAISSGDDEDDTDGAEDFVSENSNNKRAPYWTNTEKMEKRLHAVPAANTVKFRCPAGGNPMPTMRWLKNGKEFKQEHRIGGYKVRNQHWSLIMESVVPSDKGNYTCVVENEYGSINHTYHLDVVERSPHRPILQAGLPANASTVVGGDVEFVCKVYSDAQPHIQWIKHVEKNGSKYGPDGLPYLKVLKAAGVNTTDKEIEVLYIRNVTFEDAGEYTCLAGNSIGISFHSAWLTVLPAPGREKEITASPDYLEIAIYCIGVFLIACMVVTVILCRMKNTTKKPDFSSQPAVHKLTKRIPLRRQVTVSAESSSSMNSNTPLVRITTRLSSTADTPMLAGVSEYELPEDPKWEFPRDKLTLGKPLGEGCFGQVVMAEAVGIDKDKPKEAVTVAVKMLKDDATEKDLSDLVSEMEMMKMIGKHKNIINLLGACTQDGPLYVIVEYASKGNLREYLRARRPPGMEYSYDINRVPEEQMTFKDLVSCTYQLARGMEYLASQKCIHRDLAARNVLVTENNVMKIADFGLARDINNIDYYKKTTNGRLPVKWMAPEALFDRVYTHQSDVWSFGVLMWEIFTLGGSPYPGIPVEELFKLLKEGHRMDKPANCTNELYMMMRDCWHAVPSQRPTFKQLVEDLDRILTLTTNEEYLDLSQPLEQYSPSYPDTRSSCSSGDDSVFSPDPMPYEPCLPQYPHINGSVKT
T6 sequence (P22607 397-758 limits assumed): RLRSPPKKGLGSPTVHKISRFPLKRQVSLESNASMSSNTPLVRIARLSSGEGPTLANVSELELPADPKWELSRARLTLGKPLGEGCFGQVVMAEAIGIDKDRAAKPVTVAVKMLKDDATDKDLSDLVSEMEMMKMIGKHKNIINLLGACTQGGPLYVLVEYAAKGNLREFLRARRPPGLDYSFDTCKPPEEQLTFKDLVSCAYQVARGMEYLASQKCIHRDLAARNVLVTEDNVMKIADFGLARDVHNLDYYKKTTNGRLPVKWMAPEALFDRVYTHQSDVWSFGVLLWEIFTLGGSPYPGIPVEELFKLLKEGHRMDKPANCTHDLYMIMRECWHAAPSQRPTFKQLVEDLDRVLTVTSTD
T4 sequence (P11362 22-822): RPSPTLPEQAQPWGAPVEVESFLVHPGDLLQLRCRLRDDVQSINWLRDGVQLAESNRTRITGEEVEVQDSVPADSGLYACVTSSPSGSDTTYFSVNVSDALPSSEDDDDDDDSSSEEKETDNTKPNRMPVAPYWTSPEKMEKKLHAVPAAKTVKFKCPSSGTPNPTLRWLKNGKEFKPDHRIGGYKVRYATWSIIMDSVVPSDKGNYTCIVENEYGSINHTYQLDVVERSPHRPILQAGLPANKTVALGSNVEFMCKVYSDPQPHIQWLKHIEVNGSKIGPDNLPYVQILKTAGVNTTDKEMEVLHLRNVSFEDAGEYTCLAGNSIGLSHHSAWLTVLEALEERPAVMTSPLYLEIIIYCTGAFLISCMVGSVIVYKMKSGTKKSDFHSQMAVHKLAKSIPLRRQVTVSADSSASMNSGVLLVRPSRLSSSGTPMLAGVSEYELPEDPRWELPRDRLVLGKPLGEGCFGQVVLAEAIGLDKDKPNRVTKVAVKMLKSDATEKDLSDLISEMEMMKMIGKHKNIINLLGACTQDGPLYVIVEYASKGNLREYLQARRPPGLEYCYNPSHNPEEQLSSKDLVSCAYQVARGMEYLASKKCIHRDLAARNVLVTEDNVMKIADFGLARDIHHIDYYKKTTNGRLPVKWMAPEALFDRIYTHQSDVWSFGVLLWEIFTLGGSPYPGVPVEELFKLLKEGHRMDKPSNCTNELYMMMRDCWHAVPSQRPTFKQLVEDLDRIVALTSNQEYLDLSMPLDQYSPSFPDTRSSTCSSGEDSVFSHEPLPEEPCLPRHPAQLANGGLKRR
T5 sequence (P22455 467-755 limits assumed): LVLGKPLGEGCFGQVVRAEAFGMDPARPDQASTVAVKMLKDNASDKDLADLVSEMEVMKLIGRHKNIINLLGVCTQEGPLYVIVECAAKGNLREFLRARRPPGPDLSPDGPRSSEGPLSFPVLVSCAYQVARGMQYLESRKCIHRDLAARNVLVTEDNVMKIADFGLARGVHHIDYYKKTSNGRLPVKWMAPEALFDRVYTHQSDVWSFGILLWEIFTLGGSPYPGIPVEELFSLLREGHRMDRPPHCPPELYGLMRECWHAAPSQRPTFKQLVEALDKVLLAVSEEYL
T1 sequence (P22607 23-806): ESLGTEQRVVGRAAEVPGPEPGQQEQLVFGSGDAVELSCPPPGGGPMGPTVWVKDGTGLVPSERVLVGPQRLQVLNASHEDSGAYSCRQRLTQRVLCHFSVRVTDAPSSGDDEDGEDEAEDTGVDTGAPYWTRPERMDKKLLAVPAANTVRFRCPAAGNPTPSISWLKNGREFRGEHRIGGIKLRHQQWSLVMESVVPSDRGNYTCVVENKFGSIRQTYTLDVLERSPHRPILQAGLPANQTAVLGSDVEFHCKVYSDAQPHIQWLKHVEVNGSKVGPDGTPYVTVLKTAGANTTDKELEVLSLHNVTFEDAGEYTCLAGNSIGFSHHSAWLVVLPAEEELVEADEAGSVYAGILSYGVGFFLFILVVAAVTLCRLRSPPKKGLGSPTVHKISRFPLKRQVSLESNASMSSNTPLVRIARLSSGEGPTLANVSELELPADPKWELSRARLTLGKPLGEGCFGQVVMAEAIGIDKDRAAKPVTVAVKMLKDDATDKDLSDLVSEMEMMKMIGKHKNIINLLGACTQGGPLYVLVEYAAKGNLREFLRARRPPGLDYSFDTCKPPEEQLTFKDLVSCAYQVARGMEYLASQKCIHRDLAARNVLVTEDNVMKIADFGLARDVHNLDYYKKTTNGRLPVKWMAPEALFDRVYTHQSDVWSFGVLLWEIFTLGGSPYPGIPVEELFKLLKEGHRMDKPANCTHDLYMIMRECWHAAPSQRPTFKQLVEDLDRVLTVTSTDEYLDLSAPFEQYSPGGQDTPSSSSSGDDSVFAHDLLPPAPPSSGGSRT
T2 sequence (P22455 22-802): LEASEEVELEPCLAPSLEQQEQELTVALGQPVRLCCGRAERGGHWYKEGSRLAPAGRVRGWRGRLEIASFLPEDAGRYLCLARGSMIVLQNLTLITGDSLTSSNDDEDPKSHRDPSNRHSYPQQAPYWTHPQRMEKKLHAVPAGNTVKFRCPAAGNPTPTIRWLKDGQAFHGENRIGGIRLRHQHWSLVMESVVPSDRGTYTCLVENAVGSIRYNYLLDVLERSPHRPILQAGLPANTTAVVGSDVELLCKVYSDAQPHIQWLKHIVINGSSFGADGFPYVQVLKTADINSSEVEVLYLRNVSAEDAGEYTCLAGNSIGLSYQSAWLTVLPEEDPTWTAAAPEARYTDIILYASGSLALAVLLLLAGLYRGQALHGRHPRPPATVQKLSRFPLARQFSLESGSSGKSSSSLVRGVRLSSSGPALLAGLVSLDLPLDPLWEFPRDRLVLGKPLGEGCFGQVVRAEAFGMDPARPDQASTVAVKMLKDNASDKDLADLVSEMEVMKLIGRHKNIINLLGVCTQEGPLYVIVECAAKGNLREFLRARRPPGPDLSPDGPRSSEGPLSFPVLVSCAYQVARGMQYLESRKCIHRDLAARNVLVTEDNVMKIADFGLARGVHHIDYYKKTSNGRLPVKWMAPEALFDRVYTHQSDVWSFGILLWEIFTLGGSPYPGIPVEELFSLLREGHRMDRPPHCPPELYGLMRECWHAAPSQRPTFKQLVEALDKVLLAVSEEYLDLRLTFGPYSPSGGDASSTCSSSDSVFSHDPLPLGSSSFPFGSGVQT

Structure (SMILES)	Kd [1] [nM]	Kd [2] [nM]	Kd [3] [nM]	Kd [4] [nM]	IC50 [5] [nM]	IC50 [6] [nM]	IC50 [7] [nM]
C[C@@H](Oc1ccc2[nH]nc(-c3cnc4c(c3)N(CCO)CCO4)c2c1)c1c(Cl)cncc1Cl [Example 49, 2-[7-[5-[(1R)-1-(3,5-dichloro-4-pyridyl)ethoxy]-1H-indazol-3-yl]-2,3-dihydro-pyrido[2,3-b][1,4]oxazin-1-yl]ethanol]	250 to 1000	100 to 250	> 1000	> 1000	250 to 1000		
Cc1cc(C#N)cc(-c2n[nH]c3ccc(O[C@H](C)c4c(C)cnnc4C)cc23)c1 [Example 79, 3-[5-[(1R)-1-(3,5-dimethylpyridazin-4-yl)ethoxy]-1H-indazol-3-yl]-5-methyl-benzonitrile]	0.1 to 100	0.1 to 100	0.1 to 100	0.1 to 100	250 to 1000	0.1 to 100	250 to 1000
C[C@@H](Oc1ccc2[nH]nc(-c3cnc4c(c3)NCCO4)c2c1)c1c(Cl)cncc1Cl [Example 17, 7-[5-[(1R)-1-(3,5-dichloro-4-pyridyl)ethoxy]-1H-indazol-3-yl]-2,3-dihydro-1H-pyrido[2,3-b][1,4]oxazine]	0.1 to 100	0.1 to 100	0.1 to 100	0.1 to 100	250 to 1000		
Cc1cnnc(C)c1[C@@H](C)Oc1ccc2[nH]nc(-c3cc(C#N)cc(OCCO)c3)c2c1 [Example 72, 3-[5-[(1R)-1-(3,5-dimethylpyridazin-4-yl)ethoxy]-1H-indazol-3-yl]-5-(2-hydroxyethoxy)benzonitrile]	0.1 to 100	0.1 to 100	0.1 to 100	0.1 to 100	100 to 250	0.1 to 100	250 to 1000
C=CC(=O)N1CCOc2ncc(-c3n[nH]c4ccc(O[C@H](C)c5c(Cl)cncc5Cl)cc34)cc21 [Example 25, 1-[7-[5-[(1R)-1-(3,5-dichloro-4-pyridyl)ethoxy]-1H-indazol-3-yl]-2,3-dihydro-pyrido[2,3-b][1,4]oxazin-1-yl]prop-2-en-1-one]	> 1000	0.1 to 100	> 1000	> 1000	0.1 to 100	250 to 1000	> 1000
C[C@@H](Oc1ccc2[nH]nc(-c3cnc(N)c(C#N)c3)c2c1)c1c(Cl)cncc1Cl [Example 30, 2-amino-5-[5-[(1R)-1-(3,5-dichloro-4-pyridyl)ethoxy]-1H-indazol-3-yl]pyridine-3-carbonitrile]	0.1 to 100	0.1 to 100	> 1000	0.1 to 100	250 to 1000		
COc1cc(C#N)cc(-c2n[nH]c3ccc(O[C@H](C)c4c(C)cnnc4C)cc23)c1 [Example 53, 3-[5-[(1R)-1-(3,5-dimethylpyridazin-4-yl)ethoxy]-1H-indazol-3-yl]-5-methoxy-benzonitrile]	0.1 to 100	0.1 to 100	0.1 to 100	250 to 1000	250 to 1000		
C[C@@H](Oc1ccc2[nH]nc(-c3cnc(N)c(OC(F)F)c3)c2c1)c1c(Cl)cncc1Cl [Example 28, 5-[5-[(1R)-1-(3,5-dichloro-4-pyridyl)ethoxy]-1H-indazol-3-yl]-3-(difluoromethoxy)pyridin-2-amine]	250 to 1000	0.1 to 100	> 1000	250 to 1000	250 to 1000	250 to 1000	> 1000
Cc1nccc(C(=O)N2CCOc3ncc(-c4n[nH]c5ccc(O[C@H](C)c6c(Cl)cncc6Cl)cc45)cc32)n1 [Example 40, [7-[5-[(1R)-1-(3,5-dichloro-4-pyridyl)ethoxy]-1H-indazol-3-yl]-2,3-dihydro-pyrido[2,3-b][1,4]oxazin-1-yl]-(2-methyl-pyrimidin-4-yl)methanone]	0.1 to 100	0.1 to 100	250 to 1000	250 to 1000	250 to 1000		
C[C@@H](Oc1ccc2[nH]nc(-c3cnc4c(c3)N(C(=O)CCN(C)C)CCO4)c2c1)c1c(Cl)cncc1Cl [Example 26, 1-[7-[5-[(1R)-1-(3,5-dichloro-4-pyridyl)ethoxy]-1H-indazol-3-yl]-2,3-dihydropyrido[2,3-b][1,4]oxazin-1-yl]-3-(dimethyl-amino)propan-1-one]	250 to 1000	0.1 to 100	> 1000	> 1000	0.1 to 100		
COc1cc(NC(=O)c2ccccn2)cc(-c2n[nH]c3ccc(O[C@H](C)c4c(Cl)cncc4Cl)cc23)c1 [Example 45, N-[3-[5-[(1R)-1-(3,5-dichloro-4-pyridyl)ethoxy]-1H-indazol-3-yl]-5-methoxy-phenyl]pyridine-2-carboxamide]	0.1 to 100	0.1 to 100	> 1000	250 to 1000	250 to 1000		
C[C@@H](Oc1ccc2[nH]nc(-c3cnc4c(c3)N(C(=O)c3ccccn3)CCO4)c2c1)c1c(Cl)cncc1Cl [Example 20, [7-[5-[(1R)-1-(3,5-dichloro-4-pyridyl)ethoxy]-1H-indazol-3-yl]-2,3-dihydropyrido[2,3-b][1,4]oxazin-1-yl]-(2-pyridyl)methanone]	0.1 to 100	0.1 to 100	100 to 250	100 to 250	250 to 1000		
COc1cc(-c2n[nH]c3ccc(O[C@H](C)c4c(Cl)cncc4Cl)cc23)cnc1N [Example 34, 5-[5-[(1R)-1-(3,5-dichloro-4-pyridyl)ethoxy]-1H-indazol-3-yl]-3-methoxy-pyridin-2-amine]	0.1 to 100	0.1 to 100	250 to 1000	250 to 1000	250 to 1000		
Cc1ccc(C(=O)N2CCOc3ncc(-c4n[nH]c5ccc(O[C@H](C)c6c(Cl)cncc6Cl)cc45)cc32)cn1 [Example 41]	0.1 to 100	0.1 to 100	100 to 250	0.1 to 100	250 to 1000		
Cc1ncccc1C(=O)N1CCOc2ncc(-c3n[nH]c4ccc(O[C@H](C)c5c(Cl)cncc5Cl)cc34)cc21 [Example 42, [7-[5-[(1R)-1-(3,5-dichloro-4-pyridyl)ethoxy]-1H-indazol-3-yl]-2,3-dihydro-pyrido[2,3-b][1,4]oxazin-1-yl]-(2-methyl-3-pyridyl)methanone]	100 to 250	0.1 to 100	> 1000	> 1000	> 1000		

From US20240316022A1 (TYRA BIOSCIENCES, INC., priority 2021, published 2024)
